Measurements as given in a melting point compilation (Tetko et al.).
Residues, ends and D or L forms follow the SMILES beside them. *: point of attachment. Trt = c1ccc(C(c2ccccc2)(c2ccccc2)*)cc1; Boc = CC(C)(C)OC(=O)*; Bn = c1ccc(C*)cc1

Compound | melting point
COC(=O)CNC(=O)[C@H](NC(=O)[C@@H](CSC(c1ccccc1)(c1ccccc1)c1ccccc1)NC(=O)[C@@H](CCCCNC(=O)OC(C)(C)C)NC(=O)C[C@H](O)C=CCCSC(c1ccccc1)(c1ccccc1)c1ccccc1)C(C)C | 85 to 87 °C
CC(C)(C)c1cc(Cc2cc(C(C)(C)C)cc(-n3nc4ccc(S(=O)(=O)c5ccccc5)cc4n3)c2O)c(O)c(-n2nc3ccc(S(=O)(=O)c4ccccc4)cc3n2)c1 | 224 to 234 °C
CCCCCCCCCCCCCCCCCCOc1cc(OCCCCc2ccc3cc(OCc4ccccc4)c(OCc4ccccc4)cc3c2)cc(N(CC(=O)O)CC(=O)O)c1 | 83 to 86 °C
CCCCCCCCCCCCN1C(=O)NC2(CC(C)(C)N(CC(O)COc3ccc(C(C)(C)c4ccc(OCC(O)CN5C(C)(C)CC6(CC5(C)C)NC(=O)N(CCCCCCCCCCCC)C6=O)cc4)cc3)C(C)(C)C2)C1=O (stereo not given) | 159 to 161 °C
FC(F)(F)c1ccc(Cl)nc1Cl | 6 °C
CCC(Cc1c(I)cc(I)c(NC(=O)CN2CCN(CC(=O)O)CCN(CC(=O)O)CCN(CC(=O)O)CC2)c1I)C(=O)O (stereo not given) | 230 °C
Cc1ccc(C(=O)OCCN(C)C)cc1-n1c(C)cc(OCc2ccc(F)cc2CNC(=O)Nc2cc(C(C)(C)C)nn2-c2cccc(OCCO)c2)c(Cl)c1=O | 158 to 160 °C
O=C(Oc1ccc2c(OC(=O)c3ccc(OCc4ccccc4)c(Cl)c3)c3ccccc3cc2c1OC(=O)c1ccc(OCc2ccccc2)c(Cl)c1)c1ccc(OCc2ccccc2)c(Cl)c1 | 106 to 109 °C
CC(C)C[C@H](NC(=O)[C@H](Cc1c[nH]cn1)NC(=O)[C@H](Cc1cccc2ccccc12)NC(=O)OCc1ccccc1)[C@@H](O)CC(=O)NN1CCN(c2cccc(C(F)(F)F)c2)CC1 | 179 to 181 °C
CCCCNC1=CCC(C)n2c1ncc(C(=O)O)c2=O (stereo not given) | 135 to 137 °C
COc1ccc(C(=O)c2ccc(OCc3nc(-c4ccccc4)oc3C)cc2)c(O)c1 | 156 to 157 °C
CCC(CC)NC(=O)c1ccc(-c2scc(-c3ccccc3Cl)c2CC(=O)OC)cc1 | 57 to 59 °C
CCn1cc(C(=O)Nc2cc(Oc3ccc4nc(NC(=O)C5CC5)cn4n3)ccc2Cl)c(C)n1 | 200 °C
CC(C)[C@H](NC(=O)N(C)Cc1cscn1)C(=O)N[C@@H](Cc1ccccc1)[C@@H](O)[C@H](O)[C@H](Cc1ccccc1)NC(=O)[C@@H](NC(=O)N(C)Cc1cscn1)C(C)C | 92 to 94 °C
CCCCCCCCCCOc1cc2c(O)c(C(=O)OCC)cnc2cc1OCC | 86.5 °C
CCCCCCCCCCCCC=CCCC(Cl)CC1CC(=O)N(N(c2ccccc2)c2[nH]n(-c3c(Cl)cc(Cl)cc3Cl)c(=O)c2OC(=O)c2cc([N+](=O)[O-])ccc2N)C1=O (stereo not given) | 118 to 121 °C
CCCCc1ccc(C(=O)Nc2ccc(OC(=O)c3ccc(CCCC)cc3)c3c2C(=O)c2c(NC(=O)c4ccc(CCCC)cc4)cc(C)c(OC(=O)c4ccc(CCCC)cc4)c2C3=O)cc1 | > 250 °C
COC(=O)[C@H](CC(C)C)NC(=O)CNC(=O)[C@H](Cc1ccc(O)cc1)NC(=O)[C@H](CO)NC(=O)[C@H](Cc1c[nH]c2ccccc12)NC(=O)[C@H](Cc1c[nH]cn1)NC(=O)[C@@H]1CCC(=O)N1 | 213 to 215 °C
CC(C)CCCC(C)C1CCC2C3CC=C4CC(NCCCNC(=O)CCNC(=O)CCNC(=O)CCCCCNc5ccc([N+](=O)[O-])cc5[N+](=O)[O-])CCC4(C)C3CCC12C (stereo not given) | 118 to 119 °C
COc1ccc(C(/C=C/c2cc(I)c(OC)c(OC)c2)S(=O)(=O)C(/C=C/c2cc(I)c(OC)c(OC)c2)c2ccc(OC)cc2)cc1 (stereo not given) | 160 to 161 °C

Compound | melting point
CCCc1[nH]c2ccccc2c1C1(c2ccc(N(CC)CC)cc2OCCCCCCCCCCOc2cc(N(CC)CC)ccc2C2(c3c(CCC)[nH]c4ccccc34)OC(=O)c3ccccc32)OC(=O)c2ccccc21 (stereo not given) | 116 to 118 °C
CCC1(CC)c2cc(-c3ccc(N(c4ccccc4)c4ccc(-c5ccc6c(c5)C(CC)(CC)c5cc(-c7nc8ccccc8s7)ccc5-6)cc4)cc3)ccc2-c2ccc(-c3nc4ccccc4s3)cc21 | 257 to 262 °C
C=CC(=O)NCNC(=O)C=C | 185 °C
COc1cc(OC)c(C=CC(c2ccc(OC)c(NC(=O)CCl)c2)S(=O)(=O)C(C=Cc2c(OC)cc(OC)cc2OC)c2ccc(OC)c(NC(=O)CCl)c2)c(OC)c1 (stereo not given) | 163 to 165 °C
CCC1(O)CC(OC2CC(N(C)C)C(OC3CC(O)C(OC4CCC(=O)C(C)O4)C(C)O3)C(C)O2)c2c(cc3c(c2O)C(=O)c2c(O)cccc2C3=O)C1C(=O)OC (stereo not given) | 148 °C
CCOC1OC(CO)C(OC2OC(COC(C)=O)C(OC3OC(COC(C)=O)C(OC(C)=O)C(OC(C)=O)C3OC(C)=O)C(OC(C)=O)C2OC(C)=O)C(O)C1NC(C)=O (stereo not given) | 260 to 262 °C
CC(=O)OCC(CNC(=O)c1c(I)c(C(=O)NCC(COC(C)=O)OC(C)=O)c(I)c(N2C(=O)COCC2COC(C)=O)c1I)OC(C)=O (stereo not given) | 210 to 212 °C
O=C(Nc1cc(Cl)cc(Cl)c1)c1c(O)ccc2ccccc12 | 246 to 248 °C
CC(=O)OCC(CNC(=O)c1c(I)c(C(=O)NCC(COC(C)=O)OC(C)=O)c(I)c(N2CCCC(Br)C2=O)c1I)OC(C)=O (stereo not given) | 232 to 235 °C
Cc1ccccc1-n1c(-c2cc(-c3ccncc3)c(N3CCOCC3)s2)nc2ccccc2c1=O | 208 to 210 °C
CCCC(=O)c1cnc2c(C(C)O)cccc2c1Nc1ccccc1C (stereo not given) | 140 to 142 °C
CC1CC2C3CCC4=CC(=O)C=CC4(C)C3(Cl)C(O)CC2(C)C1(O)C(=O)CO (stereo not given) | 217 to 222 °C
Cc1ccc(OCC(=O)O)c(C(=O)NCc2ccc(Br)cc2F)c1 | 145 to 146 °C
CCCCCCCCCCOc1cc2c3cc(OCCCCCCCCCC)c(OCCCCCCCCCC)cc3c3c(OC)ccc(OC)c3c2cc1OCCCCCCCCCC | 69 to 70 °C
CS(=O)(=O)c1ccc(-c2nc(C(F)(F)F)nc(N3CCN(C(=O)c4cccs4)CC3)c2-c2ccccc2)cc1 | 189 to 194 °C
CCCCC(C)OC(=O)c1c(I)c(I)c(C(=O)OC(C)CCCC)c(I)c1I (stereo not given) | 114 to 115 °C
COc1cc(OC)c(/C=C/C(c2ccc(OC)c(NC(=O)c3ccc(N)cc3)c2)S(=O)(=O)C(/C=C/c2c(OC)cc(OC)cc2OC)c2ccc(OC)c(NC(=O)c3ccc(N)cc3)c2)c(OC)c1 (stereo not given) | 137 to 140 °C
O=C(Cl)C(F)(F)F | -146 °C
CCCCCCCCCCCCCC(=O)NC1C(OCC(=O)O)OC(COC2OC(CO)C(OP(=O)(O)O)C(OC(=O)CNC(=O)CCCCCCCCCCC)C2NC(=O)CCCCCCCCCCCCC)C(O)C1OC(=O)CCCCCCCCCCCCC (stereo not given) | 150 to 155 °C
CC1(C)CC(Nc2nc(N(C3CC(C)(C)NC(C)(C)C3)C3CC(C)(C)NC(C)(C)C3)nc(N(C3CC(C)(C)NC(C)(C)C3)C3CC(C)(C)NC(C)(C)C3)n2)CC(C)(C)N1 | 318 to 320 °C

Compound | melting point
CCCc1nn(C)c(C(=O)O)c1[N+](=O)[O-] | 122 to 126 °C
F[Si](c1ccccc1)(c1ccccc1)c1ccccc1 | 64 °C
CC(C)(C)c1cc(CCC(=O)OC2C(C)(C)C(OC(=O)CCc3cc(C(C)(C)C)c(O)c(C(C)(C)C)c3)C(C)(C)C(OC(=O)CCc3cc(C(C)(C)C)c(O)c(C(C)(C)C)c3)C2(C)C)cc(C(C)(C)C)c1O (stereo not given) | 105 to 115 °C
COc1ccc(C(O)CNCc2ccccc2[N+](=O)[O-])cc1OC (stereo not given) | 120 to 121 °C
C[C@H](CCN(CCCCNC(=O)[C@@H](NC(=O)CCCCCCNC(=NC(=O)OCc1ccccc1)NC(=O)OCc1ccccc1)O[C@@H](C)c1ccc2ccccc2c1)C(=O)OCc1ccccc1)NC(=O)OCc1ccccc1 | 58 °C
CCC1(O)CC(OC2CC(N(C)C)C(OC3CC4OC5CC(=O)C(C)OC5OC4C(C)O3)C(C)O2)c2c(cc3c(c2O)C(=O)c2c(O)cccc2C3=O)C1C(=O)OC (stereo not given) | 161 °C
O=C(NCC(O)CO)c1c(I)c(C(=O)NCC(O)CO)c(I)c(N(CCCN(C(=O)CO)c2c(I)c(C(=O)NCC(O)CO)c(I)c(C(=O)NCC(O)CO)c2I)C(=O)CO)c1I (stereo not given) | 234 to 236 °C
CCC(O)C=CC=CC=CC(=O)OCC1OC(OC2C(CO)OC3(OCc4cc(O)cc(O)c43)C(O)C2OC(=O)C=CC=CCC(O)C(C)=CC=CCCC(C)CC)C(O)C(O)C1O (stereo not given) | 193 to 197 °C
C=COC(=O)CCC | -80 °C
CCCCCCCCNC1(NC(=O)c2ccccc2-c2ccc(CCCCCCCC)cc2)CC(CCCC)=C(NC(=O)c2ccccc2-c2ccc(CCCCCCCC)cc2)C2=C1C(=O)c1ccccc1C2=O (stereo not given) | 94 to 95 °C
CC1=NN(CCCc2ccccc2)C(=O)C1 | 103 to 105 °C
C=CCOCC(=O)Nc1c(I)c(C(=O)NC(COC(C)=O)COC(C)=O)c(I)c(C(=O)NC(COC(C)=O)COC(C)=O)c1I | 214 to 216 °C
CC(NC(=O)C(Cc1ccc(OCc2ccccc2)cc1)NC(=O)C(COCc1ccccc1)NC(=O)C(Cc1c[nH]c2ccccc12)NC(=O)OC(C)(C)C)C(N)=O (stereo not given) (Boc-WS(Bn)Y(Bn)A-NH2; configuration not given here) | 180 to 185 °C
Cc1nc(C(=O)Cl)c(C)o1 | 37.7 °C
CCCCCCCCCCCCCCCCCCSCCOP(=O)(Cc1cc(C(C)(C)C)c(O)c(C)c1C)OCCSCCCCCCCCCCCCCCCCCC | 71 to 73 °C
CC1=C(CC(=O)O)c2cc(C#N)ccc2C1=Cc1ccc(S(C)=O)cc1 (stereo not given) | 160 to 165 °C
CC(C)=CCC/C(C)=C/CC/C(C)=C/CC/C=C(\C)CC/C=C(\C)CCC=C(C)C | -5 °C
O=C(O)CN(CC(COCc1ccccc1)N(CCCOCc1ccccc1)CC(=O)O)CC(COCc1ccccc1)N(CCCOCc1ccccc1)CC(=O)O (stereo not given) | 150 °C
COC(=O)C(Cc1ccccc1)NC(=O)C(Cc1ccccc1)NC(=O)C(CC(N)=O)NC(=O)C(CCCCNC(=O)OC(C)(C)C)NC(=O)C(CSC(c1ccccc1)(c1ccccc1)c1ccccc1)NC(=O)CNC(=O)C(C)NC(=O)CNC(=O)CNC(=O)C(CC(C)C)NC(=O)OC(C)(C)C (stereo not given) (Boc-LGGAGC(Trt)K(Boc)NFF-OMe; configuration not given here) | 238 to 240 °C
CC(COC(=O)CCSCCSCCC(=O)OCC(C)(Cc1cc(C(C)(C)C)c(O)c(C(C)(C)C)c1)Cc1cc(C(C)(C)C)c(O)c(C(C)(C)C)c1)(Cc1cc(C(C)(C)C)c(O)c(C(C)(C)C)c1)Cc1cc(C(C)(C)C)c(O)c(C(C)(C)C)c1 | 156 to 161 °C
